Results on 10 compounds are retold here after patent US20120251551A1, “Substituted (Heteroarylmethyl)thiohydantoins” (BAYER PHARMA AKTIENGESELLSCHAFT, priority 2009, published 2012).

Changes are numbered by the printed parent chain.

Experiment [1] addresses T1, wild-type human androgen receptor (Homo sapiens, UniProt P10275).
T1 construct: expressed in transfected cells
T1 sequence (P10275 1-920): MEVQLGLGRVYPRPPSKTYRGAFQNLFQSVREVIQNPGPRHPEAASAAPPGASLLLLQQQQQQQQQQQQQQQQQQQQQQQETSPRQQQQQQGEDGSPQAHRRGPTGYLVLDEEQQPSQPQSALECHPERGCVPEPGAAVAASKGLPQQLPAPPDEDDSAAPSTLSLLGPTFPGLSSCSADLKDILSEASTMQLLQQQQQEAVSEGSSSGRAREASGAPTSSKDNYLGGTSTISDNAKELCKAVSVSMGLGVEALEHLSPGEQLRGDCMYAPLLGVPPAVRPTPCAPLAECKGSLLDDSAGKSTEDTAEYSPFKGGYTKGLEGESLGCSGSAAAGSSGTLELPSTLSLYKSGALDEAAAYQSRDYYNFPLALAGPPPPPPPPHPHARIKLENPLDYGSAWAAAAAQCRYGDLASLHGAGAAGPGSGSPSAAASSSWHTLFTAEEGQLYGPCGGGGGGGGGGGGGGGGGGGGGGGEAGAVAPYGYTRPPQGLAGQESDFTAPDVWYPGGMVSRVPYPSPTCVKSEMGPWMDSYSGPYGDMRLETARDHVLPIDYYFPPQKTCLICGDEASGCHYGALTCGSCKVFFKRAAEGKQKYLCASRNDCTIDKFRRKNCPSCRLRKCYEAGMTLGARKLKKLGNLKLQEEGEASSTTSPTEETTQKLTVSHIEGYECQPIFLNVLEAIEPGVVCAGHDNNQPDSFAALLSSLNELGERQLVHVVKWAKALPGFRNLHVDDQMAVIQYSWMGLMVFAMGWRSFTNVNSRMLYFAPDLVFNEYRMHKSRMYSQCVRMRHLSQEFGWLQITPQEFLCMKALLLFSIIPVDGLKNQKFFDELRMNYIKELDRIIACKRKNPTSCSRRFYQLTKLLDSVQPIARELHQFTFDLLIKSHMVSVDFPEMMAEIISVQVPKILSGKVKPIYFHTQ
The experiment in a line: Cell-based transactivation assay for wild-type human androgen receptor (PC-3 cells, MMTV-luciferase reporter).
Description: Cell-Based Transactivation Assay for Wild-Type Human Androgen Receptor
PC-3 cells (Kaighn et al., Invest. Urol. 17:16-23, 1979) stably transfected with the human androgen receptor (Swiss-Prot Acc. No. P10275, Entry Version 159, Sequence Version 2) and a reporter plasmid based on pGL4.14 (#E6691, Promega Corporation, Madison, Wis., USA) containing the MMTV promoter (Cato et al., EMBO J. 6:363-8, 1987) were used. They were grown in 5% charcoal-stripped medium and seeded at a concentration of 1000 cells per well in a 384-well plate. For determination of antagonistic activity, the plate additionally contained the compound to be tested at a concentration range varying from 5.12×10^−12 to 1×10^−5 M. The assay was performed in presence of 1×10^−10 R1881 (also known as methyltrienolone). After overnight incubation at 37° C. in a 5% CO2 atmosphere, 15 μl of Steady Glo Lysis and Detection reagent (Steady Glo Luciferase assay system E2550 from Promega Corporation. Madison, Wis., USA) were added. IC50 was calculated for anti-androgenic activity as well as percentage inhibition in presence of 2 μM compound in comparison to non-stimulated luciferase signal. Agonistic activity was determined using the same concentration range of compound in the absence of R1881 by measuring Luciferase activity as above. EC50 was calculated for androgenic activity. Assay/read plates were used (Polystyrol; 384, NV-white cell culture plates; Perkin Elmer).

The target of experiment [2] is T2, human androgen receptor E709Y mutant (Homo sapiens, UniProt P10275, E710Y).
T2 construct: expressed in transfected cells; host or cells: PC-3 cells, transient transfection with a pSG5-derived plasmid
T2 sequence (P10275 1-920 E710Y): T1 sequence (P10275 1-920) with E710Y
As to the kind of experiment: Cell-based transactivation assay for human androgen receptor mutant E709Y.
Description: Cell-Based Transactivation Assay for Human Androgen Receptor Mutant E709Y
PC-3 cells (Kaighn et al., Invest. Urol. 17:16-23, 1979) were grown in 5% charcoal-stripped medium and seeded at a concentration of 10000 cells per well in a 96-well plate. They were transiently transfected with a pSG5-derived plasmid (#216201 from Stratagene, La Jolla, Calif., USA) coding for the human androgen receptor E709Y mutant (Georget et al., Molecular Endocrinology, 20(4): 724-734, 2006) and an MMTV-Luciferase reporter plasmid based on pGL4.14 14 (#E6691, Promega Corporation, Madison, Wis., USA). The compound to be tested was added at a concentration range varying from 1×10^−9 to 1×10^−6 M together with 1×10^−10 R1881. After 24 h incubation at 37° C. in a 5% CO2 atmosphere, 100 μl of Steady Glo Lysis and Detection reagent (Steady Glo Luciferase assay system E2550 from Promega Corporation. Madison, Wis., USA) were added. Antagonistic activity was determined by measuring Luciferase activity in a Victor 3 Luminometer (PerkinElmer, Waltham, Mass., USA) using the Steady Glo Luciferase Assay (E2550, Promega). IC50 values were calculated for anti-androgenic activity.

In experiment [3] the target is T3, human androgen receptor W741C mutant (Homo sapiens, UniProt P10275, W742C).
T3 construct: expressed in transfected cells; host or cells: PC-3 cells, transient transfection with a pSG5-derived plasmid
T3 sequence (P10275 1-920 W742C): T1 sequence (P10275 1-920) with W742C
As to the kind of experiment: Cell-based transactivation assay for human androgen receptor mutant W741C.
Description: Cell-Based Transactivation Assay for Human Androgen Receptor Mutant W741L or W741C
PC-3 cells (Kaighn et al., Invest. Urol. 17:16-23, 1979) were grown in 5% charcoal-stripped medium and seeded at a concentration of 10000 cells per well in a 96-well plate. They were transiently transfected with a pSG5-derived plasmid (#216201 from Stratagene, La Jolla, Calif., USA) coding for the human androgen receptor W741L or W741C mutant Mara et al., Cancer Research, 63: 149-153, 2003) and an MMTV-Luciferase reporter plasmid based on pGL4.14 14 (#E6691, Promega Corporation, Madison, Wis., USA). The compound to be tested was added at a concentration range varying from 1×10^−9 to 1×10 M together with 1×10^−10 R1881. After 24 h incubation at 37° C. in a 5% CO2 atmosphere, 100 μl of Steady Glo Lysis and Detection reagent (Steady Glo Luciferase assay system E2550 from Promega Corporation. Madison, Wis., USA) were added. Antagonistic activity was determined by measuring Luciferase activity in a Victor 3 Luminometer (PerkinElmer, Waltham, Mass., USA) using the Steady Glo Luciferase Assay (E2550, Promega). IC50 values were calculated for anti-androgenic activity.

In the case of `CN1C(=S)N(c2ccc(C#N)c(C(F)(F)F)c2)C(=O)C1(C)C` [2-(Trifluoromethyl)-4-(3,4,4-trimethyl-5-oxo-2-thioxoimidazolidin-1-yl)benzonitrile, reference compound], in experiment [1], the EC50 turned out to be 0.00797 µM. Further, the IC50 stood at 0.117 µM in experiment [2] and 0.0212 µM in experiment [3].

Turning to `CC1(C)C(=O)N(c2ccc(C#N)c(C(F)(F)F)c2)C(=S)N1CCCCO` [4-[3-(4-Hydroxybutyl)-4,4-dimethyl-5-oxo-2-thioxoimidazolidin-1-yl]-2-(trifluoromethyl)benzonitrile, reference compound], it took 0.00813 µM to reach a half-maximal effect in experiment [1] (EC50). The concentration for half-maximal inhibition (IC50) in experiment [2] is > 1 µM; in experiment [3], 0.0271 µM.

The compound `CC1(C)C(=O)N(c2ccc(C#N)c(C(F)(F)F)c2)C(=S)N1Cc1ccc(F)cc1` [Comparative data^4] yielded a 50% effective concentration (EC50) in experiment [1] of 0.00179 µM. Besides, the IC50 in experiment [2] and in experiment [3] was > 1 µM each time.

In experiment [1], `CC1(C)C(=O)N(c2ccc(C#N)c(C(F)(F)F)c2)C(=S)N1Cc1ccccc1` [Comparative data^4] registered a concentration giving a half-maximal response (EC50) of 0.0464 µM. In addition, the IC50 amounted to 0.587 µM in experiment [2] and 0.142 µM in experiment [3].

As for `CC1(C)C(=O)N(c2ccc(C#N)c(C(F)(F)F)c2)C(=S)N1Cc1ccc(-n2ccnc2)nc1` [Example 1, 4-(3-{[6-(1H-Imidazol-1-yl)pyridin-3-yl]methyl}-4,4-dimethyl-5-oxo-2-thioxoimidazolidin-1-yl)-2-(trifluoromethyl)benzonitrile], the EC50 in experiment [1] was > 10 µM. Further, the IC50 in experiment [2] came to 0.00721 µM; in experiment [3] it was 0.216 µM.

For `CC1(C)C(=O)N(c2ccc(C#N)c(C(F)(F)F)c2)C(=S)N1Cc1ccc(C(F)(F)F)nc1` [Example 2, 4-(4,4-Dimethyl-5-oxo-2-thioxo-3-{[6-(trifluoromethyl)pyridin-3-yl]methyl}imidazolidin-1-yl)-2-(trifluoromethyl)benzonitrile], the response in experiment [1] was half-maximal at 5.43 µM (EC50). In experiment [2], this compound registered a 50% inhibitory concentration (IC50) of 0.0142 µM.

For `CC1(C)C(=O)N(c2ccc(C#N)c(C(F)(F)F)c2)C(=S)N1Cc1ccc(N2CCOCC2)nc1` [Example 4, 4-(4,4-Dimethyl-3-{[6-(morpholin-4-yl)pyridin-3-yl]methyl}-5-oxo-2-thioxoimidazolidin-1-yl)-2-(trifluoromethyl)benzonitrile], in experiment [1], the half-maximal effective concentration (EC50) is > 10 µM. For the same compound, the IC50 in experiment [2] is 0.0772 µM; in experiment [3], 0.27 µM.

For `CC1(C)C(=O)N(c2ccc(C#N)c(C(F)(F)F)c2)C(=S)N1Cc1ccc(N2CCS(=N)(=O)CC2)nc1` [Example 9, 4-(3-{[6-(1-Imino-1-oxido-1λ^6-thiomorpholin-4-yl)pyridin-3-yl]methyl}-4,4-dimethyl-5-oxo-2-thioxoimidazolidin-1-yl)-2-(trifluoromethyl)benzonitrile], in experiment [1], the EC50 is > 10 µM. In experiment [2], this compound had an IC50 of 0.00565 µM.

Regarding `CC(C)(O)COc1ccc(CN2C(=S)N(c3ccc(C#N)c(C(F)(F)F)c3)C(=O)C2(C)C)cn1` [Example 10, 4-(3-{[6-(2-Hydroxy-2-methylpropoxy)pyridin-3-yl]methyl}-4,4-dimethyl-5-oxo-2-thioxoimidazolidin-1-yl)-2-(trifluoromethyl)benzonitrile], the EC50 in experiment [1] is > 10 µM. The 50% inhibitory concentration (IC50) in experiment [2] amounted to 0.0263 µM; in experiment [3] it was 0.115 µM.

On to `Cc1nc(C(F)(F)F)ccc1CN1C(=S)N(c2ccc(C#N)c(C(F)(F)F)c2)C(=O)C1(C)C` [Example 13, 4-(4,4-Dimethyl-3-{[2-methyl-6-(trifluoromethyl)pyridin-3-yl]methyl}-5-oxo-2-thioxoimidazolidin-1-yl)-2-(trifluoromethyl)benzonitrile], for which the concentration for a half-maximal effect (EC50) in experiment [1] is > 10 µM. This compound returned a 50% inhibitory concentration (IC50) in experiment [2] of 0.0247 µM.
